Source: patent US7138361B2, “Herbicidal heterocycles” (E. I. du Pont de Nemours and Company, priority 2000, dated 2006)

Legend:
Format in all cases: in vivo
Nightshade [1] = experiment: Test C preemergence; details: Rate 500 g/ha, visual evaluation after 12 to 14 days
[2] = system: barnyardgrass (Echinochloa crus-galli); experiment: Test C flooded paddy test; details: for Barnyardgrass plant response rating: Flooded Paddy, scale 0 to 100, 0 no effect, 100 complete control
Procedure, shortened: (§1)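 Ratings come from visual comparison with control plants after 12 to 14 days in the greenhouse. Each species was at the 2-leaf stage when the flooded paddy was treated. Scores run from 0, meaning no effect, to 100, meaning complete control.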

[3] = system: smallflower flatsedge (Cyperus difformis); experiment: Test C flooded paddy test; details: for Flatsedge plant response rating: Flooded Paddy, scale 0 to 100, 0 no effect, 100 complete control
Procedure, shortened: as §1

rice (Oryza saliva) = experiment: Test C flooded paddy test; details: for Rice plant response rating: Flooded Paddy, scale 0 to 100, 0 no effect, 100 complete control
Procedure, shortened: as §1

[4] = system: duck salad (Heteranthera limosa); experiment: Test C flooded paddy test; details: for Ducksalad plant response rating: Flooded Paddy, scale 0 to 100, 0 no effect, 100 complete control
Procedure, shortened: as §1

kochia (Kochia scoparia) = experiment: Test C preemergence
Procedure, shortened: (§2)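 Each compound was dissolved in a non-phytotoxic solvent system containing a surfactant and sprayed either on freshly planted seeds (preemergence) or on young plants, 2 to 18 cm high (postemergence). Ratings after 12 to 14 greenhouse days ran from 0, no effect, to 100, complete control.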

Sunflower = experiment: Test C preemergence; details: Rate 125 g/ha; scale 0 to 100, 0 no effect, 100 complete control
[5] = system: cocklebur (Xanthium strumarium); experiment: Test C preemergence
Procedure, shortened: as §2

[6] = system: johnsongrass (Sorghum halepense); experiment: Test C preemergence
Procedure, shortened: as §2

[7] = system: pigweed (Amaranthus retroflexus); experiment: Test C preemergence
Procedure, shortened: as §2

[8] = system: goosegrass (Eleusine indica); experiment: Test C preemergence
Procedure, shortened: as §2

[9] = system: Surinam grass (Brachiaria decumbens); experiment: Test C preemergence
Procedure, shortened: as §2

[10] = system: woolly cupgrass (Eriochloa villosa); experiment: Test C preemergence
Procedure, shortened: as §2

[11] = system: common ragweed (Ambrosia elatior); experiment: Test C preemergence
Procedure, shortened: as §2

soybean (Glycine max) = experiment: Test C preemergence
Procedure, shortened: as §2

[12] = system: bermudagrass (Cynodon dactylon); experiment: Test C preemergence
Procedure, shortened: as §2

[13] = system: crabgrass (Digitaria sanguinalis); experiment: Test C preemergence
Procedure, shortened: as §2

corn (Zea mays) = experiment: Test C preemergence
Procedure, shortened: as §2

[14] = system: morningglory (Ipomoea hederacea); experiment: Test C preemergence
Procedure, shortened: as §2

[15] = system: velvetleaf (Abutilon theophrasti); experiment: Test C preemergence
Procedure, shortened: as §2

Nightshade [16] = experiment: Test C preemergence
[17] = system: yellow nutsedge (Cyperus esculentus); experiment: Test C preemergence
Procedure, shortened: as §2

[18] = system: giant foxtail (Setaria faberii); experiment: Test C preemergence
Procedure, shortened: as §2

[19] = flooded paddy test, Rate 125 g/ha, scale 0 to 100 (0 no effect, 100 complete control)
[20] = flooded paddy test, Rate 16 g/ha, visually evaluated after 12 to 14 days, 0 = no effect, 100 = complete control
[21] = flooded paddy test, Rate 62 g/ha, visually evaluated after 12 to 14 days, 0 = no effect, 100 = complete control
[22] = flooded paddy test, under head Rate 16 g/ha, (own rate not given), after 12 to 14 days
[23] = Rate 125 g/ha, scale 0 to 100, 0 no effect, 100 complete control
[24] = preemergence, Rate 62 g/ha, scale 0 to 100
[25] = preemergence, Rate 500 g/ha, visual evaluation after 12 to 14 days
[26] = preemergence, Rate 250 g/ha, scale 0 to 100, 0 no effect, 100 complete control

## CCC(CC)c1ccn(C2OCN(c3cccc(OC(F)F)c3)C2=O)n1 (stereo not drawn) [Compound 131]
Nightshade [1]
  Plant response rating (0 to 100), Nightshade: 100
[2]; Rate 250 g/ha
  Barnyardgrass plant response rating: 100
[2]; Rate 500 g/ha
  Barnyardgrass plant response rating: 100
[2]; [19]
  Plant response rating, Barnyardgrass: 100
[2]; [20]
  Plant response rating (scale 0 to 100), Barnyardgrass: 60
[2]; [21]
  Plant response rating (scale 0 to 100), Barnyardgrass: 100
[2]; [22]
  Plant response rating (scale 0 to 100), Barnyardgrass: 50
[3]; Rate 250 g/ha
  Flatsedge plant response rating: 100
[3]; Rate 500 g/ha
  Flatsedge plant response rating: 100
[3]; [19]
  Plant response rating, Flatsedge: 100
[3]; [20]
  Plant response rating (scale 0 to 100), Flatsedge: 90
[3]; [21]
  Plant response rating (scale 0 to 100), Flatsedge: 90
[3]; [22]
  Plant response rating (scale 0 to 100), Flatsedge: 90
Rice (Oryza saliva); Rate 250 g/ha
  Rice plant response rating: 80
Rice (Oryza saliva); Rate 500 g/ha
  Rice plant response rating: 90
Rice (Oryza saliva); [19]
  Plant response rating, Rice: 15
Rice (Oryza saliva); [20]
  Plant response rating (scale 0 to 100), Rice: 0
Rice (Oryza saliva); [21]
  Plant response rating (scale 0 to 100), Rice: 0
Rice (Oryza saliva); [22]
  Plant response rating (scale 0 to 100), Rice: 0
[4]; Rate 250 g/ha
  Ducksalad plant response rating: 100
[4]; Rate 500 g/ha
  Ducksalad plant response rating: 100
[4]; [19]
  Plant response rating, Ducksalad: 100
[4]; [20]
  Plant response rating (scale 0 to 100), Ducksalad: 70
[4]; [21]
  Plant response rating (scale 0 to 100), Ducksalad: 80
[4]; [22]
  Plant response rating (scale 0 to 100), Ducksalad: 20
Kochia (Kochia scoparia); [23]
  Plant response rating, Kochia: 100
Kochia (Kochia scoparia); [24]
  Plant response rating, Kochia: 100
Kochia (Kochia scoparia); [25]
  Plant response rating (0 to 100), Kochia: 100
Kochia (Kochia scoparia); [26]
  Plant response rating, Kochia: 100
Sunflower
  Plant response rating, Sunflower: 20
[5]; [23]
  Plant response rating, Cocklebur: 0
[5]; [24]
  Plant response rating, Cocklebur: 0
[5]; [25]
  Plant response rating (0 to 100), Cocklebur: 30
[5]; [26]
  Plant response rating, Cocklebur: 30
[6]; [23]
  Plant response rating, Johnsongrass: 70
[6]; [24]
  Plant response rating, Johnsongrass: 30
[6]; [25]
  Plant response rating (0 to 100), Johnsongrass: 100
[6]; [26]
  Plant response rating, Johnsongrass: 80
[7]; [23]
  Plant response rating, Pigweed: 90
[7]; [24]
  Plant response rating, Pigweed: 90
[7]; [25]
  Plant response rating (0 to 100), Pigweed: 100
[7]; [26]
  Plant response rating, Pigweed: 100
[8]; [23]
  Plant response rating, Goosegrass: 100
[8]; [24]
  Plant response rating, Goosegrass: 100
[8]; [25]
  Plant response rating (0 to 100), Goosegrass: 100
[8]; [26]
  Plant response rating, Goosegrass: 100
[9]; [23]
  Plant response rating, Surinam grass: 100
[9]; [24]
  Plant response rating, Surinam grass: 100
[9]; [25]
  Plant response rating (0 to 100), Surinam grass: 100
[9]; [26]
  Plant response rating, Surinam grass: 100
[10]; [23]
  Plant response rating, Cupgrass, Woolly: 100
[10]; [24]
  Plant response rating, Cupgrass, Woolly: 100
[10]; [25]
  Plant response rating (0 to 100), Cupgrass, Woolly: 100
[10]; [26]
  Plant response rating, Cupgrass, Woolly: 100
[11]; [23]
  Plant response rating, Ragweed, Common: 0
[11]; [24]
  Plant response rating, Ragweed, Common: 0
[11]; [25]
  Plant response rating (0 to 100), Ragweed, Common: 100
[11]; [26]
  Plant response rating, Ragweed, Common: 0
Soybean (Glycine max); [23]
  Plant response rating, Soybean: 0
Soybean (Glycine max); [24]
  Plant response rating, Soybean: 0
Soybean (Glycine max); [25]
  Plant response rating (0 to 100), Soybean: 40
Soybean (Glycine max); [26]
  Plant response rating, Soybean: 40
[12]; [23]
  Plant response rating, Bermudagrass: 100
[12]; [24]
  Plant response rating, Bermudagrass: 100
[12]; [25]
  Plant response rating (0 to 100 where 0 is no effect and 100 is complete control), Bermudagrass: 100
[12]; [26]
  Plant response rating, Bermudagrass: 100
[13]; [23]
  Plant response rating, Crabgrass: 100
[13]; [24]
  Plant response rating, Crabgrass: 100
[13]; [25]
  Plant response rating (0 to 100), Crabgrass: 100
[13]; [26]
  Plant response rating, Crabgrass: 100
Corn (Zea mays); [23]
  Plant response rating, Corn: 100
Corn (Zea mays); [24]
  Plant response rating, Corn: 100
Corn (Zea mays); [25]
  Plant response rating (0 to 100), Corn: 100
Corn (Zea mays); [26]
  Plant response rating, Corn: 100
[14]; [23]
  Plant response rating, Morningglory: 60
[14]; [24]
  Plant response rating, Morningglory: 0
[14]; [25]
  Plant response rating (0 to 100), Morningglory: 90
[14]; [26]
  Plant response rating, Morningglory: 90
[15]; [23]
  Plant response rating, Velvetleaf: 30
[15]; [24]
  Plant response rating, Velvetleaf: 20
[15]; [25]
  Plant response rating (0 to 100), Velvetleaf: 70
[15]; [26]
  Plant response rating, Velvetleaf: 70
Nightshade [16]; Rate 62 g/ha, scale 0 to 100
  Plant response rating, Nightshade: 90
Nightshade [16]; [23]
  Plant response rating, Nightshade: 100
Nightshade [16]; Rate 250 g/ha, scale 0 to 100, 0 no effect, 100 complete control
  Plant response rating, Nightshade: 100
[17]; [23]
  Plant response rating, Nutsedge: 90
[17]; [24]
  Plant response rating, Nutsedge: 0
[17]; [25]
  Plant response rating (0 to 100), Nutsedge: 100
[17]; [26]
  Plant response rating, Nutsedge: 90
[18]; [23]
  Plant response rating, Foxtail, Giant: 100
[18]; [24]
  Plant response rating, Foxtail, Giant: 90
[18]; [25]
  Plant response rating (0 to 100), Foxtail, Giant: 100
[18]; [26]
  Plant response rating, Foxtail, Giant: 100
